{"source": "patent US20050033056A1", "about": "“Hydroxylated indole derivatives and uses thereof” (priority 2001, published 2005)", "key": {"5-HT1A receptor": {"molecular_target": "T1, 5-HT1A receptor (Homo sapiens, UniProt P08908)", "T1 sequence (P08908 1-422)": "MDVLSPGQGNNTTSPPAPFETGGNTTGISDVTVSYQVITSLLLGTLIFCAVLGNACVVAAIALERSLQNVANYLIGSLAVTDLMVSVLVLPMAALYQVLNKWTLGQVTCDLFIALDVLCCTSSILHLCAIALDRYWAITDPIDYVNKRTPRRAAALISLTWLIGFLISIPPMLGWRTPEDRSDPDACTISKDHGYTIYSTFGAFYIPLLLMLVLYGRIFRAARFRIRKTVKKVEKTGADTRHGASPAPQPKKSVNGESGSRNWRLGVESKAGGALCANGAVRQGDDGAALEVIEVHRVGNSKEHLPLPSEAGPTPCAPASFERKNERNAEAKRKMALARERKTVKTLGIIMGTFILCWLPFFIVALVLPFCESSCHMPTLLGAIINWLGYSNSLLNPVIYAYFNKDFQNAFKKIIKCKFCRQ", "conditions": "background statement, see WO 98/43956 and EP 0 976 732 A1; cited from earlier work"}, "CYP2D6": {"molecular_target": "CYP2D6 (Homo sapiens, UniProt P10635)", "sequence (P10635 whole entry)": "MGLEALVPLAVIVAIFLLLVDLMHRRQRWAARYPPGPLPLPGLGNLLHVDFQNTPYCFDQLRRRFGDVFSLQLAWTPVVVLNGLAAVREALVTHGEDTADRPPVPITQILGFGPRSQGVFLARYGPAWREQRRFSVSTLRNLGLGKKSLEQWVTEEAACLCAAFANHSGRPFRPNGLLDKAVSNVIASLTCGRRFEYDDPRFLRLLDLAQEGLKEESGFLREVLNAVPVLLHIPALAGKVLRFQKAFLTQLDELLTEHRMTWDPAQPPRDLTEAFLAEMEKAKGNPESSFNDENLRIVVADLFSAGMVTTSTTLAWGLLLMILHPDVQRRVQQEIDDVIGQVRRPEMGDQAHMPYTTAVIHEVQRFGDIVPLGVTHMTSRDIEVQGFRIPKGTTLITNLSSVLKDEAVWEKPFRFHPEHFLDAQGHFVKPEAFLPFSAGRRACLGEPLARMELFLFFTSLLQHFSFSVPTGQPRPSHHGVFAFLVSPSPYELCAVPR", "assay": "CYP inhibition in HLM: bufuralol 1'-hydroxylation", "type": "in vitro ADME", "set-up": "tissue Gentest Corp. (Woburn, Mass.); host or cells: pooled human liver microsomes", "conditions": "in the presence of Compound 1, concentration-dependent", "experimental": "The incubations were carried out in test tubes (12.0×75 mm). The incubation mixtures (250 μL) contained 0.5 mg of HLM protein, 50 (CYP1A2 and CYP2E1) or 25 (CYP2C9, CYP2C19, CYP2D6 and CYP3A4) pmol of recombinant human CYPs, Compound 1 (10 or 50 μM), probe substrate (R—, S-warfarin, chlorzoxazone, S-mephenyloin, or bufuralol) at different concentrations, and 0.5 mg of NADPH in 50 mM Tris buffer containing 15 mM MgCl2 (pH 7.4). Compound 1 was added to the reaction mixture 5 minutes prior to the addition of the probe substrate. […]\nThe quantification was based on the calibration curves, and the quality control (QC) samples were applied to ensure the quality of the experiments. […]\n3. […] Multiple reaction monitoring (MRM) was applied for the quantification. […]\nData were acquired and analyzed by ChemStation (Version 6.03, Hewlett Packard, Waldbronn, Germany) for 6-, 7-, and 10-hydroxywarfarin and 6-hydroxychlorzoxazone, and MacQuan (Version 1.6, PE Biosystem, Foster City, Calif.) for 1′-hydroxybufuralol and 4′-hydroxymephenytoin. Quantification was based on peak area ratios of metabolites over the respective IS against the respective concentration of the metabolites. […] The metabolic rates were determined using Excel (Microsoft Office 97, Microsoft Corporation, Redmond, Wash.) or SigmaPlot (Version 6.00, SPSS Inc. Chicago, Ill.). […]"}}}
{"smiles": "CNC(=O)Cc1ccc2ccn(C3CCN(CCc4ccccc4F)CC3)c2c1", "note": "[Compound 1, N-methyl-[1-[1-(2-fluorophenethyl)piperidine-4-yl]-1H-indol-6-yl] acetamide]", "values": [{"measurement": "IC50, binding to 5-HT1A receptor", "setting": "5-HT1A receptor", "value": "low nanomolar"}, {"measurement": "effect on CYP2D6-mediated bufuralol 1'-hydroxylation activity (in words)", "setting": "CYP2D6", "value": "significantly reduced"}]}
